Data from patent US11466044B2 (WAYNE STATE UNIVERSITY, priority 2017, dated 2022).
In brackets after ≈: the same amount, converted by molar mass. Like-named read-outs stand apart in the source and are kept apart here.

Columns and labels:
M. abscessus = assay: MIC by broth microdilution, M. abscessus; format: cell-based; conditions: Mycobacteroides abscessus
P aeruginosa = assay: MIC by broth microdilution, P aeruginosa isolates; format: cell-based, Pseudomonas aeruginosa; conditions: strain AG220 Pseudomonas aeruginosa ATCC27853; read-out: MIC AG220 P. aerugin
E coli wild type = assay: MIC by broth microdilution, wild type E coli; format: cell-based; conditions: for MIC: Escherichia coli
[1] = test system: cytosolic ribosome (human chimeric); format: biochemical
From the text: (§1) The antiribosomal activity of these compounds was investigated with cell-free translation assays using both wild type bacterial ribosomes and hybrid ribosomes carrying eukaryotic decoding A sites enabling the prediction of selectivity.

[2] = test system: mitochondrial ribosome (human chimeric); format: biochemical
From the text: as §1

M. smegmatis SZ380 = assay: MIC by broth microdilution, M. smegmatis; conditions: Mycolicibacterium smegmatis
[3] = test system: Acinetobacter baumannii pittii AG225; assay: MIC by broth microdilution, Acinetobacter baumannii; format: cell-based; conditions: strain AG225 Acinetobacter baumannii pittii
[4] = test system: Enterobacter cloacae AG290; assay: MIC by broth microdilution, Enterobacter cloacae; format: cell-based; conditions: strain AG290 Enterobacter cloacae; read-out: MIC AG290 E. cloacae
[5] = test system: E coli carrying specific resistance determinants; assay: MIC by broth microdilution, E coli carrying specific resistance determinants; format: cell-based; conditions: for MIC: Escherichia coli
[6] = test system: A1555G mutant mitochondrial ribosome (human chimeric); assay: in-vitro translation assay, human chimeric ribosomes, A1555G mutant mitochondrial decoding site; format: biochemical; conditions: Table 3 (Example 3)
From the text: as §1

[7] = test system: Klebsiella pneumonia AG215; assay: MIC by broth microdilution, Klebsiella pneumonia; format: cell-based; conditions: Klebsiella pneumoniae; strain AG215 Klebsiella pneumonia; read-out: MIC AG215 K. pneumon
[8] = test system: wild type bacterial ribosomes; assay: in-vitro translation assay, bacterial ribosomes; format: biochemical
From the text: as §1

MRSA = assay: MIC by broth microdilution, MRSA isolates; format: cell-based; conditions: Staphylococcus aureus, MRSA, Table 1 (Example 3)

`NCC1OC(OC2C(CO)OC(OC3C(O)C(N)CC(N)C3OC3OC(CN)C(O)C(O)C3NC=O)C2O)C(N)C(O)C1O` (stereo not drawn) [Compound 182, 2′-N-Formamido-neomycin] showed an MIC (M. abscessus; ATCC19977, ATCC 19977 WT, Table 5 (Example 3), read-out: MIC M. abscessus ATCC 19977 WT) of 16 µg/mL (≈ 24.9 µM), an MIC (M. abscessus; read-out: MIC M. abscessus engineered Δeis2) of 0.5 µg/mL (≈ 0.778 µM) and an MIC (M. abscessus; ATCC, Table 4 (Example 3), read-out: MIC M. abscessus ATCC) of 16 µg/mL (≈ 24.9 µM). The MIC (M. abscessus; Clin. Isol., Table 4 (Example 3), read-out: MIC M. abscessus Clin. Isol.) was 32 µg/mL (≈ 49.8 µM), the MIC (P aeruginosa) was greater than 64 µg/mL and the MIC (E coli wild type; AG006 Wild type, Table 2 (Example 3), read-out: MIC E coli AG006 Wild type) was 2 µg/mL (≈ 3.11 µM). For the same compound, the MIC (E coli wild type; AG104 Wild type, Table 2 (Example 3), read-out: MIC E coli AG104 Wild type) was 2 to 4 µg/mL (≈ 3.11 to 6.22 µM), the MIC (E coli wild type; ATCC25922, strain AG212 E. coli (ATCC25922), read-out: MIC AG212 E. coli) was 4 µg/mL (≈ 6.22 µM) and the MIC (E coli wild type; WT, Table 4 (Example 3), read-out: MIC E. coli WT) was 2 µg/mL (≈ 3.11 µM). For the same compound, the MIC (E coli wild type; WT, Table 5 (Example 3), read-out: MIC E. coli WT) was 2 µg/mL (≈ 3.11 µM), the MIC (E coli wild type; clinical isolate AG001, Table 1 (Example 3), read-out: MIC E coli AG001) was 4 to 8 µg/mL (≈ 6.22 to 12.4 µM) and the MIC (E coli wild type; clinical isolate AG003, Table 1 (Example 3), read-out: MIC E coli AG003) was 4 to 8 µg/mL (≈ 6.22 to 12.4 µM). The MIC (E coli wild type; clinical isolate AG055, Table 1 (Example 3), read-out: MIC E coli AG055) was 2 µg/mL (≈ 3.11 µM), the “antibacterial activity, in words” value (E coli wild type; MRSA and E coli, compared with the parent compound) was “retains most of the activity of the parent” and the “Selectivity for Binding to the Bacterial Ribosome over the Cytosolic Ribosome” value ([1]; Table 3 (Example 3)) was 1093. For the same compound, the IC50 ([1]; cytosolic, Table 4 (Example 3), read-out: IC50 Cyt) was 127 µM, the “Selectivity for Binding to the Bacterial Ribosome over the Mitochondrial Ribosome” value ([2]; Table 3 (Example 3)) was 463 and the IC50 ([2]; mitochondrial, Table 4 (Example 3), read-out: IC50 Mit) was 54 µM. For the same compound, the MIC (M. smegmatis SZ380; SZ380, read-out: MIC M. smegmatis SZ380 WT, SZ380 WT, Table 5 (Example 3)) was 1 µg/mL (≈ 1.56 µM), the MIC (M. smegmatis SZ380; SZ380, read-out: MIC SZ380 M. smegmatis, strain SZ380 Mycobacterium smegmatis) was 1 µg/mL (≈ 1.56 µM) and the MIC [3] was 2 µg/mL (≈ 3.11 µM). For the same compound, the MIC [4] was 2 µg/mL (≈ 3.11 µM), the “effect of the AAC(2′) resistance determinant, in words” value ([5]; AAC(2′)) was “not susceptible to deactivation by AAC(2′)” and the MIC ([5]; read-out: MIC E coli AG106 AAC(2′)) was 2 µg/mL (≈ 3.11 µM). It also gave an MIC ([5]; read-out: MIC E. coli AAC(2′) AG106) of 2 µg/mL (≈ 3.11 µM), an MIC ([5]; read-out: MIC E. coli AAC(2′) pH434) of 8 to 16 µg/mL (≈ 12.4 to 24.9 µM) and an MIC ([5]; read-out: MIC E. coli AG106 AAC(2′)-Ia) of 2 µg/mL (≈ 3.11 µM). The MIC ([5]; read-out: MIC E. coli pGB2armA armA) was 8 µg/mL (≈ 12.4 µM), the MIC ([5]; read-out: MIC E. coli pH434 AAC(2′)-Ib) was 8 to 16 µg/mL (≈ 12.4 to 24.9 µM) and the “Selectivity for Binding to the Bacterial Ribosome over the Mutant Mitochondrial Ribosome” value [6] was 108. For the same compound, the MIC [7] was 1 to 2 µg/mL (≈ 1.56 to 3.11 µM), the IC50 ([8]; bacterial ribosome, Table 4 (Example 3), read-out: IC50 Bac) was 0.12 µM and the “selectivity for the bacterial ribosome over mitochondrial (wild type, A1555G mutant) and cytosolic ribosomes, in words” value ([8]; compared with the parent compound) was “increased selectivity for the bacterial ribosome”. It also gave an MIC (MRSA; clinical isolate AG038, read-out: MIC MRSA AG038) of 2 to 4 µg/mL (≈ 3.11 to 6.22 µM), an MIC (MRSA; clinical isolate AG039, read-out: MIC MRSA AG039) greater than 32 µg/mL and an MIC (MRSA; clinical isolate AG042, read-out: MIC MRSA AG042) greater than 32 µg/mL.
